The term melting point denotes the temperature of the solid-liquid transition. Consider `CCCN(CCC)C(=O)c1cc(C)cc(C(=O)N[C@@H](Cc2cc(F)cc(F)c2)[C@@H](O)CCN)c1` [Example 1, 5-amino-1,2,4,5-tetradeoxy-1-(3,5-difluorophenyl)-2-({3-[(dipropylamino)carbonyl]-5-methylbenzoyl}amino)-L-threo-pentitol], for which the melting point lay in the range of 61 to 72 °C.

Values taken from patent publication US7244755B2, “Hydroxypropylamines” (Pharmacia & Upjohn Company, priority 2001, dated 2007).
